# Laboratory results as given in a melting point compilation (Tetko et al.).
row,melting point [°C],Compound
1,8,O=C(OCCCl)OCCCl
2,-89.4,CC(C)C1CCCCC1
3,300,O=Cc1c[nH]c2ccc([N+](=O)[O-])cc12
4,-70,FC(F)(F)C1(F)C(F)(F)C(F)(F)C(F)(F)C2(F)C(F)(F)C(F)(F)C(F)(F)C(F)(F)C12F (centres undefined)
5,180,O=C(Cl)c1ccc2noc(-c3ccc(Cl)cc3)c2c1
6,95,c1cc2c3c(cccc3c1)C1=NCCN=C12
7,146 to 150,Cc1ccc([N+](=O)[O-])c(N)n1
8,132,COc1ccc(NCC(=O)Nc2ccc(OC)cc2)cc1
9,111,N#Cc1cc2ccccc2c2ccccc12
10,102,CCN(Cc1c(F)cccc1Cl)c1c([N+](=O)[O-])cc(C(F)(F)F)cc1[N+](=O)[O-]
11,38.5,N#Cc1cc(C(F)(F)F)ccc1Cl
12,65,Cc1cc2ccccc2cc1CCl
13,34 to 38,Fc1ccc(S)cc1F
14,135 to 139,Cc1cc(C(=O)O)c(C)o1
15,131,COc1c(Cl)cc([N+](=O)[O-])c(OC)c1C(=O)O
16,103,Cc1c(C(C)C)c(=O)n(-c2ccccc2)n1C
17,99 to 100,CCOC(=O)c1c(-c2ccccc2)csc1NC(=O)CCl
18,233,c1ccc(N=Nc2ccc(/N=N/c3ccc(N=Nc4ccccc4)cc3)cc2)cc1
19,62.5,"C=C1CCC2OC2(C)CCC2C1CC2(C)C (single isomer, unassigned; (-))"
20,70 to 72,O=CC(F)(F)C(F)(F)C(F)(F)C(F)(F)C(F)(F)C(F)(F)C(F)(F)C(F)(F)C(F)(F)C(F)(F)F
21,40,O=[N+]([O-])c1cccnc1
22,-78.8,CCCCCOC(=O)CCCC
23,82,O=C(c1ccccc1)c1ccc(OCc2ccccc2)cc1
24,43.7 to 44.4,COC1OC(=O)c2ccccc21 (centres undefined)
25,68 to 70,CC(=O)Nc1ccccc1OC(F)(F)F

row,melting point [°C],Compound
1,64,O=[N+]([O-])c1ccc(S(=O)(=O)Cl)cc1C(F)(F)F
2,124,CCCCCC(=O)OC1(C(C)=O)CCC2C3CCC4=CC(=O)CCC4C3CCC21C (centres undefined)
3,188,O=C1CC(c2ccccc2)Oc2cc(O)ccc21 (centres undefined)
4,< 20,Brc1ccccc1Oc1ccccc1
5,166 to 168,CC1NC(C(=O)O)C(C)(C)S1 (mixture of isomers)
6,127 to 129,Clc1nccc(-c2cccs2)n1
7,93 to 96,CCCCCCCCCCCCCC=CC(O)C(CO)NC(C)=O (centres undefined)
8,30,Clc1ncc(Br)c(Cl)n1
9,138,Cc1ccccc1C(=O)Cc1ccccc1C(=O)O
10,133,O=C(O)Cc1ccc(CO)cc1
11,82,CC(C)(C)c1ccc(S(=O)(=O)Cl)cc1
12,44 to 46,Cc1cc(CO)nn1-c1ccccn1
13,150 to 151,CC(C)(C)OC(=O)Nc1cc(O)cc(C(=O)O)c1
14,300,Nc1nc(S)nc2[nH]ncc12
15,105 to 107,N#Cc1cccnc1Sc1ccccc1
16,150,O=C(/C(=N/Nc1cccnc1)C(=O)C(F)(F)F)c1cccs1
17,-53.9,SCCCCS
18,90,NC(=O)OCC(O)COc1ccc(Cl)cc1 (centres undefined)
19,142 to 145,CC(=CNNc1nc(C)cc(C)n1)c1ccccn1
20,32 to 34,Ic1cccc(CN2CCOCC2)c1
21,-82.5,CCCc1cccc(C)c1
22,-10,CCC(=O)C(=O)CC
23,111,CCCNc1cc(=O)oc2ccccc12
24,30 to 31,Clc1ccc(OCCCCBr)cc1
25,82 to 84,COc1ccc(C)cc1S(=O)(=O)Cl

row,melting point [°C],Compound
1,29,Oc1cc(F)cc(F)c1F
2,196,Cc1cc(O)c2c(c1)C(=O)c1cccc(O)c1C2=O
3,251 to 254,O=c1c(N2CCCC2)c(N2CCOCC2)c1=O
4,124,Clc1nccc2ccc(Br)cc12
5,110,CC1=C(C(=O)Nc2ccccc2)CCCO1
6,97.5,CCC1(CC)COC(=O)NC1=O
7,149,Cc1ccc(-c2onc(C(=O)c3ccc(Cl)cc3)c2S(=O)(=O)c2ccccc2)cc1
8,100 to 103,OC[C@H]1O[C@H](CO)[C@@H](O)[C@@H]1O
9,32,Oc1ccc(F)c(F)c1F
10,118 to 119,N#CCc1ccc(Oc2ccc([N+](=O)[O-])cn2)cc1
11,29,ClCCCCCCCCCCCCCl
12,183 to 189,Cc1cccc2c1C(=O)NC2=O
13,166,CCOC(=O)c1ccc(NC(=O)C(C(F)(F)F)C(F)(F)F)cc1
14,124,CCC(Oc1c(I)cc(I)cc1I)C(=O)O (centres undefined)
15,33,O=C1C=C(Cl)C(=O)O1
16,252 to 255,O=c1[nH]c(=O)n(-c2cccc(C(F)(F)F)c2)c2c1CCCC2
17,81,Cc1cc(C#N)ccc1[N+](=O)[O-]
18,125 to 126,O=Cc1ccc(CN2C(=O)c3ccccc3C2=O)o1
19,144 to 146,Cc1ccc(-n2ncc(Cl)c(Cl)c2=O)cc1
20,224,CCOC(=O)Cn1nc(-c2ccccc2)c2ccccc2c1=O
21,45 to 47,O=C(C1CCNCC1)N1CCCC1
22,152,CN1CCC(=C2c3ccccc3CC(=O)c3sccc32)CC1
23,41.5,C=C1C[C@H]1C(O)C(=O)OC (some centres undefined)
24,65 to 68,CC(C)[C@H](O)C(=O)O
25,82.5,OC1CCC(Cl)CC1 (centres undefined)

row,melting point [°C],Compound
1,105,Clc1ncnc2sccc12
2,-6,Brc1ccc(Br)s1
3,84 to 85,CC(C)(C)C(=O)OCC(N)=S
4,189 to 190,O=c1[nH]cc(C(F)(F)F)cc1[N+](=O)[O-]
5,217 to 218,CC(C)(C)c1cc(C(=S)NC2CCCCC2)cc(C(C)(C)C)c1O
6,-12.5,CC(=O)O[Si](C)(C)OC(C)=O
7,149,O=C1C=C(NCc2ccccn2)C(=O)c2ccccc21
8,153 to 157,O=C(N=Nc1ccccc1)NNc1ccccc1
9,118,N#Cc1ccc(N)cc1Cl
10,140,CSc1nc(C=O)ccc1C#N
11,-30,NCCNCCNCCNCCN
12,97,CC(=O)O[C@@H](C(=O)O)c1ccccc1
13,74,O=C(O)C1Cc2ccccc21 (centres undefined)
14,167,NNC(=S)Nc1ccc(C(F)(F)F)cc1
15,-24.5,CC(C)C(c1ccccc1)C(C)C
16,76,N#Cc1ccc(F)cc1Br
17,184,O=C1CC=CCC(=O)CC=CC1
18,76 to 78,Brc1ccc2nccn2c1
19,147,CC1CCC(C)(C(=O)CN(C)C(=S)Nc2ccccc2)C1(C)C (centres undefined)
20,158,N#Cc1ccc(O)c(Br)c1
21,124,Cc1ccccc1NC(=S)C(=O)c1ccccc1
22,-73.5,CCCCCOC=O
23,250,O=C(Nc1cc2c(cc1/C=C/c1ccccc1)CC(c1ccccc1)N2C(=O)c1ccccc1)c1ccccc1 (centres undefined)
24,189 to 190,O=C(O)c1ccc2occc2c1
25,146 to 149,Cc1ccc(C(=O)O)c(C(=O)O)c1

row,melting point [°C],Compound
1,184,O=C1C(=O)c2ccccc2C(Cl)=C1Cl
2,125,Cc1cc(C)c(N)c(C(O)c2ccccc2)c1 (centres undefined)
3,81.3,OCc1ccc2ccccc2c1
4,132,COC1=CC(=O)NC1
5,78 to 81,COC(=O)CSCCC(N)=S
6,280,COc1ccc(/C=C(/C#N)c2nc3ccccc3c(=O)[nH]2)cc1
7,-10,NC1CC1
8,94,CCN1C(=O)NC(c2ccccc2)C1=O (centres undefined)
9,-35.4,C/C=C(C)/C=C/C=C(C)C
10,-75,CC1CCCC1=O (centres undefined)
11,29 to 31,Cc1ccc(S(=O)(=O)OCC2COC(C)(C)O2)cc1 (centres undefined)
12,38.5,Cc1cc(Br)cc(Cl)c1N
13,68,CC(C)(C)NCC(O)COc1ccccc1C1CCCC1 (centres undefined)
14,168 to 171,CC(=O)c1cc2c(cc1N)OCO2
15,146,Cc1c(Cl)ccc(OC(C)C(=O)Nc2ccccc2)c1Cl (centres undefined)
16,54,c1ccc2nonc2c1
17,90 to 95,O=C1COCC(=O)O1
18,150,CC(C)C1=CCC2C(=C1)CCC1C(C)(C(=O)O)CCCC21C (centres undefined)
19,89 to 90,O=[N+]([O-])c1cccnc1Oc1ccc(Cl)cc1
20,60 to 61,COC(=O)c1cc(C(C)=O)ccc1O
21,144,O=[N+]([O-])c1ccccc1C(Cl)C(Cl)c1ccccn1 (centres undefined)
22,217 to 218,COc1ccc(C=CC(=O)O)c(Cl)c1OC

row,Compound,melting point [°C]
1,OC(O)C(Cl)(Cl)Cl,57
2,ClC1OCCOC1Cl (centres undefined),30
3,CC(=O)OC1CCC2C3CCC4CC=CCC4(C)C3CCC12C (centres undefined),93 to 94
4,O=C(O)C(F)(F)C(F)(F)C(F)(F)C(F)(F)C(F)(F)C(F)(F)C(F)(F)C(F)(F)F,65
5,O=C(O)CCCCCCCO,51 to 57
6,CCCCNC(=O)OC#CCI,66
7,O=C=Nc1ccc(Cl)cc1,30
8,CCC(Br)(CC)C(=O)NC(N)=O,118
9,CNCC(O)c1ccc(O)cc1 (centres undefined),184
10,N#CC12CCN(CC1)CC2,133
11,C=C(C)C(=C)C,-76
12,COC1C=CC2=CCN3CCC4=C(CC(=O)OC4)C23C1 (centres undefined),99.5
13,Oc1ccc(O)c2ccccc12,188 to 192
14,CCCCOCCOC(C)=O,-63
15,BrCc1ccc(I)cc1,80
16,Nc1ncnc2c1ncn2C1OC(CI)C(O)C1O (centres undefined),178 to 187
17,CSC(=NOC(=O)N(C)C=C1C=NC=N1)C(=O)N(C)C,252
